Experimental data taken from ChEMBL document CHEMBL1201862, “PubChem BioAssay data set” (2004).
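Method: 48-hour compound exposure of cells in 96-well plates, five concentrations, linear interpolation of endpoints. Abbreviation: GI50, concentration required for 50% inhibition of growth.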 Calls of active or inactive are those of the source. No stated cut-off is given here; in the data, active = GI50 up to about 1.1 µM and inactive = higher.

Experiments:
Test in all cases: DTP human tumour cell line panel, 48 h
A498 = test system: A498
SNB-19 = test system: SNB-19
UACC-62 = test system: UACC-62
NCI-H23 = test system: NCI-H23
OVCAR-8 = test system: OVCAR-8
HOP-92 = test system: HOP-92
SNB-75 = test system: SNB-75
NCI-H522 = test system: NCI-H522
CCRF-CEM = test system: CCRF-CEM
SK-OV-3 = test system: SK-OV-3
LOX IMVI = test system: LOX IMVI
MOLT-4 = test system: MOLT-4
UO-31 = test system: UO-31
NCI-H460 = test system: NCI-H460
SK-MEL-5 = test system: SK-MEL-5
K562 = test system: K562

Structure (SMILES) | GI50 (A498) | GI50 (SNB-19) | GI50 (UACC-62) | GI50 (NCI-H23) | GI50 (OVCAR-8) | GI50 (HOP-92) | GI50 (SNB-75) | GI50 (NCI-H522) | GI50 (CCRF-CEM) | GI50 (SK-OV-3) | GI50 (LOX IMVI) | GI50 (MOLT-4) | GI50 (UO-31) | GI50 (NCI-H460) | GI50 (SK-MEL-5) | GI50 (K562)
O=C(Cc1nc2ccc(C(=O)c3ccccc3)cc2nc1O)C(=O)Nc1ccc(C(F)(F)F)cc1[N+](=O)[O-] | 90.4 µM (inactive) | 94.8 µM (inactive) | 38.9 µM (inactive) | 75 µM (inactive) | 69 µM (inactive) | 35.3 µM (inactive) | 45.9 µM (inactive) | 31.3 µM (inactive) | 27.3 µM (inactive) | > 100 µM (inactive) | 39.4 µM (inactive) | 22.8 µM (inactive) | 61.2 µM (inactive) | 57.8 µM (inactive) | 39.7 µM (inactive) | 27.6 µM (inactive)
O=C1CCCCCCCCCCC1CN1CCCCC1 (stereo unspecified) | > 100 µM (inactive) | > 100 µM (inactive) | 88.9 µM (inactive) | 26.9 µM (inactive) | > 100 µM (inactive) |  | 39.1 µM (inactive) | > 100 µM (inactive) | 66.8 µM (inactive) |  | 70.6 µM (inactive) | 57 µM (inactive) | 39 µM (inactive) | 51.1 µM (inactive) | 15 µM (inactive) | 94.4 µM (inactive)
COC1(OC)CC2C(=O)N(Cc3ccccc3)C1C(S(=O)(=O)c1ccccc1)C2C(C)S(=O)(=O)c1ccccc1 (stereo unspecified) |  | > 100 µM (inactive) | > 100 µM (inactive) | > 100 µM (inactive) | > 100 µM (inactive) | 17 µM (inactive) |  | > 100 µM (inactive) | > 100 µM (inactive) | > 100 µM (inactive) | > 100 µM (inactive) | > 100 µM (inactive) |  | > 100 µM (inactive) | > 100 µM (inactive) | > 100 µM (inactive)
COc1ccc(-c2nc(Sc3c([N+](=O)[O-])ncn3C)n[nH]2)cc1 | 10.5 µM (inactive) | 13 µM (inactive) | 3.08 µM (inactive) | 1.77 µM (inactive) | 2.44 µM (inactive) | 2.55 µM (inactive) | 4.92 µM (inactive) | 2.27 µM (inactive) | 2.89 µM (inactive) | 4.17 µM (inactive) | 2.72 µM (inactive) | 2.85 µM (inactive) | 5.13 µM (inactive) | 8.77 µM (inactive) | 2.65 µM (inactive) | 2.99 µM (inactive)
CC(=O)Oc1cc(Cl)c(OC(C)=O)c2c(OC(C)=O)c(C)c(O[Si](C)(C)C(C)(C)C)cc12 | 2.09 µM (inactive) | 12.8 µM (inactive) |  | 4.18 µM (inactive) | 2.52 µM (inactive) | 7.52 µM (inactive) |  | 5.07 µM (inactive) | 2.54 µM (inactive) |  | 4.01 µM (inactive) | 3.31 µM (inactive) | 13.5 µM (inactive) | 3.79 µM (inactive) | 4.41 µM (inactive) | 3.22 µM (inactive)
CN(c1ccccc1)c1nc(=[N+]2CCCC2)ss1.[O-][Cl+3]([O-])([O-])[O-] | > 100 µM (inactive) | > 100 µM (inactive) | > 100 µM (inactive) |  | > 100 µM (inactive) |  | > 100 µM (inactive) | 1.7 µM (inactive) | > 100 µM (inactive) | > 100 µM (inactive) |  | > 100 µM (inactive) | > 100 µM (inactive) | 1.85 µM (inactive) | > 100 µM (inactive) | 74.5 µM (inactive)
Cc1ccccc1NC(=O)C1C(=O)N(c2ccccc2C)C(=O)/C1=N\NC(N)=S (stereo unspecified) |  | > 100 µM (inactive) | > 100 µM (inactive) | > 100 µM (inactive) |  | > 100 µM (inactive) | > 100 µM (inactive) | > 100 µM (inactive) | > 100 µM (inactive) | > 100 µM (inactive) | > 100 µM (inactive) | > 100 µM (inactive) | > 100 µM (inactive) |  |  | > 100 µM (inactive)
C/C(=N/Nc1ccc([N+](=O)[O-])cc1[N+](=O)[O-])C(CC(C(=O)NCc1ccccc1)/C(C)=N\Nc1ccc([N+](=O)[O-])cc1[N+](=O)[O-])C(=O)NCc1ccccc1 (stereo unspecified) | 14.8 µM (inactive) | 15.2 µM (inactive) | 11.7 µM (inactive) | 13.3 µM (inactive) | 2.14 µM (inactive) | 2.88 µM (inactive) | 2.96 µM (inactive) | < 0.01 µM (active) |  | 15.6 µM (inactive) |  |  | 2.39 µM (inactive) | 5.51 µM (inactive) |  | 
COC(=O)C(=O)C(C(=O)C=C(C)C)C(=O)C(=O)Nc1cccc(C(C)=O)c1 (stereo unspecified) | > 100 µM (inactive) | > 100 µM (inactive) | > 100 µM (inactive) | > 100 µM (inactive) | > 100 µM (inactive) |  | > 100 µM (inactive) | > 100 µM (inactive) | > 100 µM (inactive) | > 100 µM (inactive) | > 100 µM (inactive) | > 100 µM (inactive) | > 100 µM (inactive) | > 100 µM (inactive) | > 100 µM (inactive) | > 100 µM (inactive)
COc1cccc(/C=C2\C(=O)N(C(=O)c3ccc(NC(C)=O)cc3)N=C2C)c1 |  | > 100 µM (inactive) |  | > 100 µM (inactive) | > 100 µM (inactive) |  | > 100 µM (inactive) | > 100 µM (inactive) | > 100 µM (inactive) |  | > 100 µM (inactive) | > 100 µM (inactive) | > 100 µM (inactive) | > 100 µM (inactive) | 56.1 µM (inactive) | > 100 µM (inactive)
CC(=O)c1c2c(cc3c1CC1(C3)Cc3cc4c(c(C(=O)O)c3C1)CCC4)CCC2 (stereo unspecified) |  | 45.3 µM (inactive) | 28.6 µM (inactive) | 26.2 µM (inactive) | 41 µM (inactive) | 33.2 µM (inactive) | 69.8 µM (inactive) | 15.9 µM (inactive) | 27.7 µM (inactive) |  | 32.4 µM (inactive) | 25.9 µM (inactive) | 26.9 µM (inactive) | 32 µM (inactive) | 35.7 µM (inactive) | 32.6 µM (inactive)
COC(=O)C1(c2ccc(OC)cc2)NC(c2ccccc2)C2C(=O)N(c3ccc(OC)cc3)C(=O)C21 (stereo unspecified) | > 100 µM (inactive) | > 100 µM (inactive) | > 100 µM (inactive) | > 100 µM (inactive) | > 100 µM (inactive) |  | > 100 µM (inactive) | > 100 µM (inactive) | > 100 µM (inactive) | > 100 µM (inactive) | > 100 µM (inactive) | > 100 µM (inactive) | > 100 µM (inactive) | > 100 µM (inactive) | > 100 µM (inactive) | > 100 µM (inactive)
CC(Oc1ccc(OCC2CCCCC2)cc1)C(=O)NCc1ccco1 (stereo unspecified) | 24.7 µM (inactive) | 74.3 µM (inactive) | 56 µM (inactive) |  | 24.9 µM (inactive) |  | 25.6 µM (inactive) | 18.4 µM (inactive) | 41 µM (inactive) | 98.9 µM (inactive) | 20.7 µM (inactive) | 34.9 µM (inactive) | 28.3 µM (inactive) | 48.1 µM (inactive) | 15.7 µM (inactive) | 42.3 µM (inactive)
CC(=O)CC(=O)ON(C)C(=O)Cc1ccccc1 |  | > 100 µM (inactive) | > 100 µM (inactive) | > 100 µM (inactive) | > 100 µM (inactive) | > 100 µM (inactive) | > 100 µM (inactive) | > 100 µM (inactive) | > 100 µM (inactive) | > 100 µM (inactive) | > 100 µM (inactive) | > 100 µM (inactive) | > 100 µM (inactive) | > 100 µM (inactive) | > 100 µM (inactive) | > 100 µM (inactive)
O=C1CN=C(c2ccccc2)c2ccncc2N1 | > 100 µM (inactive) | > 100 µM (inactive) | > 100 µM (inactive) | > 100 µM (inactive) | > 100 µM (inactive) | > 100 µM (inactive) | > 100 µM (inactive) | > 100 µM (inactive) | > 100 µM (inactive) | > 100 µM (inactive) | > 100 µM (inactive) | > 100 µM (inactive) | > 100 µM (inactive) |  | > 100 µM (inactive) | > 100 µM (inactive)
N#C/N=C(/N)NCc1ccccc1 | > 100 µM (inactive) |  |  | > 100 µM (inactive) | > 100 µM (inactive) | > 100 µM (inactive) | > 100 µM (inactive) | > 100 µM (inactive) | > 100 µM (inactive) | > 100 µM (inactive) | > 100 µM (inactive) | > 100 µM (inactive) | > 100 µM (inactive) | > 100 µM (inactive) | > 100 µM (inactive) | 
CCOC(=O)[C@H]1Nc2ccc(C)cc2C2c3ccccc3CC21 (stereo partly specified) | 33.4 µM (inactive) | > 100 µM (inactive) | > 100 µM (inactive) | > 100 µM (inactive) | > 100 µM (inactive) |  | 46.1 µM (inactive) | > 100 µM (inactive) |  |  | > 100 µM (inactive) | > 100 µM (inactive) | > 100 µM (inactive) | > 100 µM (inactive) | > 100 µM (inactive) | > 100 µM (inactive)
O=S1(=O)C[C@@H](O)[C@H](O)CS1 | > 100 µM (inactive) | > 100 µM (inactive) | > 100 µM (inactive) | > 100 µM (inactive) | > 100 µM (inactive) | > 100 µM (inactive) | > 100 µM (inactive) | > 100 µM (inactive) |  | > 100 µM (inactive) | > 100 µM (inactive) | > 100 µM (inactive) | > 100 µM (inactive) | > 100 µM (inactive) | > 100 µM (inactive) | > 100 µM (inactive)
COc1cccc(OC)c1C(=O)OCc1ccccc1 |  |  | > 100 µM (inactive) | > 100 µM (inactive) | > 100 µM (inactive) | > 100 µM (inactive) | > 100 µM (inactive) | > 100 µM (inactive) | > 100 µM (inactive) | > 100 µM (inactive) |  | > 100 µM (inactive) |  | > 100 µM (inactive) | > 100 µM (inactive) | > 100 µM (inactive)
